± gives the expanded uncertainty stated by the source.
Test: mn = molality of the nth substance listed, in mol/kg
Conditions: Liquid

CCCO [propan-1-ol] + O
Conditions | mass density [kg/m3]
292.05 K, 101 kPa, Pycnometric method, m1 = 0.869 | 991.42 ± 1
293.45 K, 101 kPa, Pycnometric method, m1 = 2.936 | 980.4 ± 1
294.85 K, 101 kPa, Pycnometric method, m1 = 56.35 | 851.23 ± 0.88
295.15 K, 101 kPa, Pycnometric method, m1 = 0.869 | 990.4 ± 1
298.15 K, 101 kPa, Pycnometric method, m1 = 0.869 | 989.5 ± 1
298.15 K, 101 kPa, Pycnometric method, m1 = 2.936 | 978.54 ± 1
298.15 K, 5000 kPa, Constant-volume piezometry, m1 = 0.869 | 990.5 ± 1.2
298.15 K, 5000 kPa, Constant-volume piezometry, m1 = 2.465 | 980.7 ± 1.2
298.15 K, 10000 kPa, Constant-volume piezometry, m1 = 0.869 | 992.6 ± 1.2
298.15 K, 10000 kPa, Constant-volume piezometry, m1 = 2.465 | 982.7 ± 1.2
298.15 K, 20000 kPa, Constant-volume piezometry, m1 = 0.869 | 996.7 ± 1.2
298.15 K, 20000 kPa, Constant-volume piezometry, m1 = 2.465 | 986.6 ± 1.2
298.15 K, 30000 kPa, Constant-volume piezometry, m1 = 0.869 | 1000.6 ± 1.2
298.15 K, 30000 kPa, Constant-volume piezometry, m1 = 2.465 | 990.3 ± 1.2
298.15 K, 40000 kPa, Constant-volume piezometry, m1 = 0.869 | 1004.4 ± 1.3
298.15 K, 40000 kPa, Constant-volume piezometry, m1 = 2.465 | 993.8 ± 1.2
302.13 K, 2844 kPa, Constant-volume piezometry, m1 = 14.38 | 910.6 ± 1.1
302.13 K, 7747 kPa, Constant-volume piezometry, m1 = 14.38 | 913.1 ± 1.1
302.13 K, 13631 kPa, Constant-volume piezometry, m1 = 14.38 | 915.8 ± 1.1
302.8 K, 101 kPa, Pycnometric method, m1 = 2.531 | 974.74 ± 1
302.8 K, 101 kPa, Pycnometric method, m1 = 7.407 | 941.25 ± 0.97
302.8 K, 101 kPa, Pycnometric method, m1 = 14.38 | 908.75 ± 0.94
303.15 K, 5000 kPa, Constant-volume piezometry, m1 = 0.869 | 988.8 ± 1.2
303.15 K, 5000 kPa, Constant-volume piezometry, m1 = 2.465 | 978.4 ± 1.2
303.15 K, 10000 kPa, Constant-volume piezometry, m1 = 0.869 | 990.9 ± 1.2
303.15 K, 10000 kPa, Constant-volume piezometry, m1 = 2.465 | 980.5 ± 1.2
303.15 K, 20000 kPa, Constant-volume piezometry, m1 = 0.869 | 995 ± 1.2
303.15 K, 20000 kPa, Constant-volume piezometry, m1 = 2.465 | 984.4 ± 1.2
303.15 K, 30000 kPa, Constant-volume piezometry, m1 = 0.869 | 998.9 ± 1.2
303.15 K, 30000 kPa, Constant-volume piezometry, m1 = 2.465 | 988 ± 1.2
303.15 K, 40000 kPa, Constant-volume piezometry, m1 = 0.869 | 1002.7 ± 1.3
303.15 K, 40000 kPa, Constant-volume piezometry, m1 = 2.465 | 991.6 ± 1.2
303.2 K, 3334 kPa, Constant-volume piezometry, m1 = 2.531 | 975.9 ± 1.2
303.2 K, 7708 kPa, Constant-volume piezometry, m1 = 2.531 | 977.7 ± 1.2
304.65 K, 101 kPa, Pycnometric method, m1 = 2.936 | 975.69 ± 1
306 K, 101 kPa, Pycnometric method, m1 = 56.35 | 842.18 ± 0.87
307.99 K, 2942 kPa, Constant-volume piezometry, m1 = 56.35 | 872.9 ± 1.1
307.99 K, 14220 kPa, Constant-volume piezometry, m1 = 56.35 | 880.4 ± 1.1
308.55 K, 101 kPa, Pycnometric method, m1 = 0.869 | 986.52 ± 1
312.07 K, 2844 kPa, Constant-volume piezometry, m1 = 7.407 | 936.5 ± 1.1
312.07 K, 6865 kPa, Constant-volume piezometry, m1 = 7.407 | 938.7 ± 1.1
312.07 K, 12160 kPa, Constant-volume piezometry, m1 = 7.407 | 941.1 ± 1.1
312.65 K, 101 kPa, Pycnometric method, m1 = 2.531 | 969.82 ± 1
312.65 K, 101 kPa, Pycnometric method, m1 = 7.407 | 934.48 ± 0.97
312.65 K, 101 kPa, Pycnometric method, m1 = 14.38 | 901.37 ± 0.93
313.75 K, 101 kPa, Pycnometric method, m1 = 2.936 | 971.27 ± 1
320.75 K, 101 kPa, Pycnometric method, m1 = 56.35 | 829.47 ± 0.87
322.35 K, 101 kPa, Pycnometric method, m1 = 2.936 | 966.49 ± 1
323.15 K, 5000 kPa, Constant-volume piezometry, m1 = 0.869 | 980.8 ± 1.2
323.15 K, 5000 kPa, Constant-volume piezometry, m1 = 2.465 | 968.2 ± 1.2
323.15 K, 10000 kPa, Constant-volume piezometry, m1 = 0.869 | 982.9 ± 1.2
323.15 K, 10000 kPa, Constant-volume piezometry, m1 = 2.465 | 970.3 ± 1.2
323.15 K, 20000 kPa, Constant-volume piezometry, m1 = 0.869 | 986.9 ± 1.2
323.15 K, 20000 kPa, Constant-volume piezometry, m1 = 2.465 | 974.3 ± 1.2
323.15 K, 30000 kPa, Constant-volume piezometry, m1 = 0.869 | 990.8 ± 1.2
323.15 K, 30000 kPa, Constant-volume piezometry, m1 = 2.465 | 978 ± 1.2
323.15 K, 40000 kPa, Constant-volume piezometry, m1 = 0.869 | 994.5 ± 1.3
323.15 K, 40000 kPa, Constant-volume piezometry, m1 = 2.465 | 981.6 ± 1.2
326.05 K, 101 kPa, Pycnometric method, m1 = 2.531 | 962.17 ± 1
326.05 K, 101 kPa, Pycnometric method, m1 = 7.407 | 924.78 ± 0.97
326.05 K, 101 kPa, Pycnometric method, m1 = 14.38 | 890.78 ± 0.93
331.05 K, 101 kPa, Pycnometric method, m1 = 56.35 | 820.42 ± 0.86
340.85 K, 101 kPa, Pycnometric method, m1 = 2.531 | 952.6 ± 1
340.85 K, 101 kPa, Pycnometric method, m1 = 7.407 | 913.42 ± 0.96
340.85 K, 101 kPa, Pycnometric method, m1 = 14.38 | 878.68 ± 0.93
342.49 K, 2353 kPa, Constant-volume piezometry, m1 = 14.38 | 877.9 ± 1.1
342.49 K, 6159 kPa, Constant-volume piezometry, m1 = 14.38 | 880.3 ± 1.1
342.49 K, 10199 kPa, Constant-volume piezometry, m1 = 14.38 | 882.7 ± 1.1
342.49 K, 14455 kPa, Constant-volume piezometry, m1 = 14.38 | 885.4 ± 1.1
343.48 K, 2942 kPa, Constant-volume piezometry, m1 = 7.407 | 913.7 ± 1.1
343.48 K, 6767 kPa, Constant-volume piezometry, m1 = 7.407 | 915.8 ± 1.1
343.48 K, 12690 kPa, Constant-volume piezometry, m1 = 7.407 | 919 ± 1.1
343.94 K, 2353 kPa, Constant-volume piezometry, m1 = 2.531 | 950.6 ± 1.1
343.94 K, 6374 kPa, Constant-volume piezometry, m1 = 2.531 | 952.5 ± 1.2
343.94 K, 10787 kPa, Constant-volume piezometry, m1 = 2.531 | 954.3 ± 1.2
347.63 K, 3668 kPa, Constant-volume piezometry, m1 = 56.35 | 838 ± 1
347.63 K, 10120 kPa, Constant-volume piezometry, m1 = 56.35 | 843.1 ± 1
348.15 K, 5000 kPa, Constant-volume piezometry, m1 = 0.869 | 967.9 ± 1.2
348.15 K, 5000 kPa, Constant-volume piezometry, m1 = 2.465 | 952.7 ± 1.2
348.15 K, 10000 kPa, Constant-volume piezometry, m1 = 0.869 | 970 ± 1.2
348.15 K, 10000 kPa, Constant-volume piezometry, m1 = 2.465 | 954.9 ± 1.2
348.15 K, 20000 kPa, Constant-volume piezometry, m1 = 0.869 | 974.1 ± 1.2
348.15 K, 20000 kPa, Constant-volume piezometry, m1 = 2.465 | 959.1 ± 1.2
348.15 K, 30000 kPa, Constant-volume piezometry, m1 = 0.869 | 978 ± 1.2
348.15 K, 30000 kPa, Constant-volume piezometry, m1 = 2.465 | 963.1 ± 1.2
348.15 K, 40000 kPa, Constant-volume piezometry, m1 = 0.869 | 981.8 ± 1.2
348.15 K, 40000 kPa, Constant-volume piezometry, m1 = 2.465 | 966.8 ± 1.2
349.85 K, 101 kPa, Pycnometric method, m1 = 2.531 | 946.25 ± 1
349.85 K, 101 kPa, Pycnometric method, m1 = 7.407 | 906.29 ± 0.96
349.85 K, 101 kPa, Pycnometric method, m1 = 14.38 | 870.71 ± 0.93
352.05 K, 101 kPa, Pycnometric method, m1 = 56.35 | 801.03 ± 0.86
373.15 K, 5000 kPa, Constant-volume piezometry, m1 = 0.869 | 951.6 ± 1.2
373.15 K, 5000 kPa, Constant-volume piezometry, m1 = 2.465 | 934.2 ± 1.1
373.15 K, 10000 kPa, Constant-volume piezometry, m1 = 0.869 | 953.9 ± 1.2
373.15 K, 10000 kPa, Constant-volume piezometry, m1 = 2.465 | 937 ± 1.1
373.15 K, 20000 kPa, Constant-volume piezometry, m1 = 0.869 | 958.3 ± 1.2
373.15 K, 20000 kPa, Constant-volume piezometry, m1 = 2.465 | 941.3 ± 1.2
373.15 K, 30000 kPa, Constant-volume piezometry, m1 = 0.869 | 962.4 ± 1.2
373.15 K, 30000 kPa, Constant-volume piezometry, m1 = 2.465 | 945.7 ± 1.2
373.15 K, 40000 kPa, Constant-volume piezometry, m1 = 0.869 | 966.3 ± 1.2
373.15 K, 40000 kPa, Constant-volume piezometry, m1 = 2.465 | 949.7 ± 1.2
